Results: patent publication US12016834B2, “Small molecule inhibitors of SLC25A1” (GEORGETOWN UNIVERSITY, priority 2017, dated 2024)
One block for each compound: values may come before it.

Tests used:
H1299 cells [1] = test: Sphere forming / self-renewal assay; type: cell-based, human; details: for self-renewal: single-cell derived spheres, Rotenone 10 nM, Oligomycin 1 mM, metformin 3 mM (FIG. 3I)
Description: Growth of monolayers and sphere cultures. Tumor cell lines were grown as monolayers in complete Dulbecco's Modified Eagle's Media (DMEM, Gibco; supplemented with 10% fetal bovine serum and 1% of 5,000 units/mL of penicillin-streptomycin (pen-strep), Gibco). To generate spheroids, cells were grown in Falcon bacteriological petri dishes coated with 2% poly(2-hydroxyethyl methacrylate) dissolved in 100% ethanol. The growth media was DMEM/F12 (Gibco) supplemented with 20 ng/mL of epidermal growth factor (EGF), 5 ng/mL of fibroblast growth factor, 0.375% 100× N2 supplements (Gibco), and 1% pen-strep. Monolayer cells were dissociated using 0.25% trypsin-edta (Gibco), whereas spheroid cultures were dissociated using StemPro Accutase (Gibco). Patient derived cell lines were grown as described below in the primary lung cultures section.
Self-renewal assays. Tumor cells cultured as spheroids were dissociated and diluted in 2× sphere media containing 1% methyl cellulose, which was previously dissolved in cold DMEM/F12 media. Either 200, 500, or 1000 cells were then plated in each 96 well and were incubated in the presence or absence of drugs, as indicated. The spheres were allowed to form for a period of a week to ten days, at which point they were counted. Six biological replicates were used for quantification of the results.

H1299 cells [2] = test: Proliferation / viability in monolayer (2D) cultures; type: cell-based, human; details: for anti-proliferative activity in 2D cultures: Rotenone 10 nM, Oligomycin 1 mM, metformin 3 mM (FIG. 3I)
Description: (§1) Cellular proliferation and cytotoxicity assays. The proliferative capacity of cells was assessed by plating cells in triplicate at a concentration of 2,000 to 10,000 cells/well in 96 well plates in triplicate, with or without drug treatment for 48 hours. The cells were then washed with 1×PBS and fixed with cold 100% methanol at−20° C. for 20 minutes. Methanol was washed off and the cells were stained with 0.5% crystal violet dissolved in 25% methanol and water at 4° C. for 20 minutes. The staining was washed off using deionized (DI) water and the plate was dried overnight. On the second day, 100 mM sodium citrate in 50% ethanol and 50% water was added to the wells and absorbance at 550 nm was measured and corrected with readings at 405 nm. In other experiments, cell viability was assessed by trypan blue exclusion and visual count of the live cells was performed.

H1299 cells [3] = test: Glycolysis: ECAR (Seahorse) and lactic acid levels; type: cell-based, human; details: sphere-grown CSCs (FIG. 11C)
Description: Cells, reagents, antibodies, primers. The H1299 cell lines and other cell lines employed in this study were obtained from ATCC or from the tissue culture core facility at LCCC. Cells were grown in Dulbecco's Modified Eagle's Medium (DMEM, 25 mM glucose, with glutamine and pyruvate from Invitrogen; Carlsbad, CA) and supplemented with 10% fetal calf serum (FCS). […] The SLC25A1 specific shRNA vectors were purchased from Sigma. The vector expressing human SLC25A1 untagged or Flag-Myc epitope tagged were from Origene; Rockville, MD (#SC120727 and RC200657, respectively). The anti-SLC25A1 antibody used in immuno-blot was from Santa Cruz Biotech, #sc-86392 employed at 1:1000 dilution. Citrate, lactate, and PFK measurements were performed by using commercially available kits (Biovision (Milpitas, CA)).
(§2) Seahorse extracellular flux analyzer experiments. Cells derived from spheres or monolayer cultures were dissociated and plated overnight at 12,000 cells/well in DMEM with 10% FBS, 5 mM glucose, 1 mM pyruvate, 2 mM glutamine.
(§3) For the mitochondrial stress test, the media was replaced with DMEM without FBS or bicarbonate, containing 5 mM glucose, 1 mM pyruvate, 2 mM glutamine and placed in a CO2 free incubator at 37° C. for 1 hour, and then transferred to the Xf96 extracellular flux analyzer (Agilent; Santa Clara, CA). The program consisted of 3 measurements of OCR/ECAR before the injection of each drug: oligomycin (0.5 μM final concentration), FCCP (2 μM) and rotenone/antimycin (0.5 μM of each). For the glycolysis stress test, cells were plated overnight as above, and the media was washed twice the following day with DMEM without FBS, bicarbonate, glucose, glutamine or pyruvate, and incubated in this media in a CO2 free incubator with/without drug treatments at 37° C. for 4 hours. There were 3 measurements of OCR/ECAR before each injection: glucose (10 mM final concentration), oligomycin (0.5 […] (50 mM). For the analysis of glutamine oxidation, the protocol was the same as the glucose stress test, but with glutamine being the only compound injected (final concentration 4 mM) and OCR/ECAR measured for 60 minutes. When spheres were analyzed, they were dissociated with StemPro® Accutase® (Thermo Scientific; Waltham, MA) and plated under the same conditions as above as for the monolayers the day before the assay (H1299 spheres), or in stem cell media (See Stem Cell Media) with the wells coated in 15 μL of 2% geltrex diluted in DMEM:F12 (Thermo Scientific). The results were normalized to cell number.

MP2 cells [4] = test: Viability (Crystal Violet) and drug interaction (R index); type: cell-based, human; details: single drug, 5 days, monolayer
Description: as §1, with “The proliferative capacity of cells was assessed by plating cells in triplicate at a concentration of 2,000 to 10,000 cells/well in 96 well plates in triplicate, with or without drug treatment for 48 hours.” left out
(§4) Statistical methods for drug interactions. […] Sexp/Sobs=1.0 denotes an additive interaction, while >1.0 denotes a synergistic interaction. R index values approaching 2.0 are indicative of strong synergy.

MP1 cells [5] = test: as above; type: cell-based, human; details: single drug, 5 days, monolayer
Description: as §1, with “The proliferative capacity of cells was assessed by plating cells in triplicate at a concentration of 2,000 to 10,000 cells/well in 96 well plates in triplicate, with or without drug treatment for 48 hours.” left out
as §4

MP1 cells [6] = test: Apoptosis by annexin V and PI flow cytometry; type: cell-based, human; details: drug alone
Description: Flow cytometry. Tumor cells were trypsinized and washed in 1×PBS. The cells were then stained with the antibodies of choice: CD166-PE (Biolegend), CD133-647 (Biolegend), or CD44 (Biolegend), in 1% BAS-PBS. The cell cycles of monolayers or spheres of the cells were analyzed by fixing the cells in cold 75% ethanol. The annexin V (Biolegend) and propidium iodide (Biolegend) experiments were carried out.

MP1 cells [7] = test: Seahorse OCR and ATP in patient-derived cells; type: cell-based, human; details: monolayer, chronic treatment for several passages (FIG. 6A)
Description: (§5) Primary lung cancer cultures and GMSC. Surgical samples were minced and digested with dispase (50 U/ml) in DMEM media containing 5% serum for 1 hour. Pleural effusions were centrifuged, washed once in PBS, and then plated. All primary cultures were initially grown on 6-well plates pre-coated with 2% Geltrex (Life Technologies; Carlsbad, CA) and 1% Maxgel (Sigma Aldrich). Maxgel is a humanized matrix, native and non-denatured. The inclusion of Maxgel in the system enhanced the initial attachment of primary tumor cells, partially because Maxgel provides a more natural ECM conformational substrate. The day after plating, the media containing unattached cells was typically transferred to a fresh plate, in most of cases generating new attached cultures. The media (Stem Cell Media) is the DMEM/F12 (Thermo-Fisher #11320-033 basic media) supplemented with the following components: Insulin-Transferrin-Sodium selenite (ITS; 1:1000; Sigma #11884); glutamine (Thermo-Fisher) to 4 mM final concentration; sodium pyruvate (Thermo-Fisher) to 2 mM final concentration; rock inhibitor (Y-27632) 10 micrograms/mL; 2-5% Knock Out Serum Replacement (KNOSR, Thermo-Fisher #10828-028); 0.5% ALBUMAX-(Lipid enriched BSA; Thermo-Fisher #11020-021); N2 Supplement (Thermo-Fisher) 1:250; EGF (5 ng/ml; Peprotech); hFGF (20 ng/ml; Bechman); and IGF-1 (Peprotech; 10-20 ng/ml).
as §2, §3

MP1 cells [8] = test: Tumor xenograft in immuno-compromised mice; type: in vivo
Description: Mice and treatments. To produce tumor xenografts, 5×10^6 cells derived from either monolayer cultures or GMSC expanded spheres were dissociated with Accutase, resuspended in PBS, and injected subcutaneously in the flanks of female balb athymic mice. Once detectable tumors started to form, their sizes were measured with a caliper in three dimensions and mice were randomized in the different treatment groups. […] Cisplatin was administered at 26 mg/kg every three or four days. AZD9291 was administered at 25/mg/Kg every 3 days. Serial measurements were made every day after the identification of the initial tumor mass to determine growth curves in vivo. Tumor volume was calculated using the formula for a prolate spheroid: volume=[…], where a is the width and b is the length. All animals were sacrificed when the tumors exceeded 1.5 cm. At the completion of experiments, tumors were excised, weighed, and the statistical significances of differences in tumor volume were assessed. Animals were monitored once a week for the presence of signs of disease, particularly neurological disturbances or weight loss, and they were weighed periodically.
Statistics. For the animal studies, power calculations for each treatment group were first determined. The number of animals was calculated to detect a 50% difference at alpha=0.05 and power=0.8. Statistical significance was assessed using both unpaired, two-tailed Student t test, and analysis of variance (ANOVA). Significant differences are indicated using the standard […] scale (P<0.05, significant; P<0.01, highly significant; P<0.001, extremely significant).

MP3 cells = test: Viability (Crystal Violet) and drug interaction (R index); type: cell-based, human; details: single drug, 5 days, monolayer
Description: as §1, with “The proliferative capacity of cells was assessed by plating cells in triplicate at a concentration of 2,000 to 10,000 cells/well in 96 well plates in triplicate, with or without drug treatment for 48 hours.” left out
as §4

MP2 cells [9] = test: Seahorse OCR and ATP in patient-derived cells; type: cell-based, human; details: monolayer, chronic treatment for several passages (FIG. 6B)
Description: as §5, §2, §3

SLC25A1 = SLC25A1 (Homo sapiens, UniProt P53007); test: Surface plasmon resonance (SPR) binding to recombinant purified SLC25A1; details: steady state, 1:1 binding model; human protein
Description: Surface Plasmon Resonance (SPR). SPR experiments were performed on a Biacore 4000 instrument at room temperature. The NTA sensorchip surface was activated by injecting 0.5 mM NiCl2 for 1 minute. Histidine-tagged recombinant purified SLC25A1 protein (0.07 mg/ml stock concentration) was used as the ligand to capture on the sensor surface. SLC25A1 was dissolved (1:50 dilution) in PBS-P (20 mM phosphate buffer (pH 7.4), 2.7 mM KCl, 137 mM NaCl and 0.05% surfactant P20) buffer and captured onto spots 2 and 4. SLC25A1 was captured to a level of ˜3000. PBS-P was used as the capture running buffer. Small molecules were used as analytes to flow over the ligand immobilized surface. Spot 3 of all flow cells were used as reference. The calculated theoretical Rmax was ˜30 RU based on a 1:1 interaction. The kinetics experiments were performed in the presence of HBS-P (10 mM HEPES (pH7.4), 150 mM NaCl, and 0.05% surfactant P20). The flow rate of all the solutions was maintained at 30 μL/min. The analyte concentrations were 0 μM, […], 6.25 μM, 12.5 μM, 25 μM, 50 μM, and 100 μM. Analyte concentrations showing signs of aggregation were excluded from the analysis. Data were analyzed by Biacore BiaEvaluation software for 1:1 steady state binding model.

Sequence of SLC25A1 (P53007 14-311): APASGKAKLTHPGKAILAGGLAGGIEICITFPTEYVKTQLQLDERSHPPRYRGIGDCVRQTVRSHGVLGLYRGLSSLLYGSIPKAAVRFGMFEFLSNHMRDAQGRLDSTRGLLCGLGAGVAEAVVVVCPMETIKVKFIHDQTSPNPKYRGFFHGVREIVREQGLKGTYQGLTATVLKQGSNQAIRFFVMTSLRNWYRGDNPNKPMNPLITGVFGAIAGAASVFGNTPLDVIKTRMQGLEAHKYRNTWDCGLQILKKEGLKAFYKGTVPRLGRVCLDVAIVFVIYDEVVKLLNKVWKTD

SMILES: O=C(O)CCCCC(CCSCc1ccccc1)SCc1ccccc1 (centres unmarked) [CPI-613]
activity in spheres versus 2D/monolayer cultures (H1299 cells [1]; sphere forming assay compared with monolayer): more effective in sphere forming assays than in monolayer cultures
anti-proliferative activity, ranges of concentrations (H1299 cells [2]; monolayer or methylcellulose single cells (FIG. 3J)): anti-proliferative activity at comparable ranges of concentrations

SMILES: CN(C)C(=N)N=C(N)N [metformin]
glycolytic rates (H1299 cells [3]): enhanced glycolytic rates
self-renewal (H1299 cells [1]): significantly reduced self-renewal
anti-proliferative activity in 2D cultures (H1299 cells [2]): no anti-proliferative activity

SMILES: N.N.[Cl][Pt][Cl] [cisplatin, reference compound]
response to drug (viability) (MP2 cells [4]): minimal response
response to drug (viability) (MP1 cells [5]): minimal response
apoptosis (MP1 cells [6]): did not induce apoptosis
mitochondrial respiration after chronic drug treatment (MP1 cells [7]): dramatic shift towards mitochondrial respiration
stem cell markers in tumors (immuno-blot) (MP1 cells [8]; GMSC-derived tumors (FIG. 7F)): enhanced
tumor growth, cisplatin alone (MP1 cells [8]; cisplatin 3 mg/Kg every three days (FIG. 7D)): inhibition of tumor growth but this effect was lost over time
time until most tumors restarted to grow (MP1 cells [8]; cisplatin alone): two

SMILES: CC[C@H]1/C=C/C=C/C[C@@H](C)[C@H](O)[C@@](C)(O)C(=O)[C@@H](C)[C@H](O)[C@@H](C)C(=O)[C@@H](C)[C@H](O)[C@@H](C)/C=C/C(=O)O[C@@H]2[C@H](C)[C@H](CC1)O[C@]1(CC[C@H](C)[C@H](C[C@@H](C)O)O1)[C@H]2C [oligomycyn, oligomycin]
self-renewal (H1299 cells [1]): significantly reduced self-renewal
anti-proliferative activity in 2D cultures (H1299 cells [2]): no anti-proliferative activity

SMILES: C=CC(=O)Nc1cc(Nc2nccc(-c3cn(C)c4ccccc34)n2)c(OC)cc1N(C)CCN(C)C [AZD9291, osimertinib, reference compound]
response to drug (viability) (MP3 cells): complete insensitivity
response to drug (viability) (MP2 cells [4]): minimal response
response to drug (viability) (MP1 cells [5]): minimal response
mitochondrial respiration after chronic drug treatment (MP2 cells [9]): dramatic shift towards mitochondrial respiration

SMILES: C=C(C)[C@H]1Cc2c(ccc3c2O[C@@H]2COc4cc(OC)c(OC)cc4[C@@H]2C3=O)O1 [rotenone]
self-renewal (H1299 cells [1]): significantly reduced self-renewal
anti-proliferative activity in 2D cultures (H1299 cells [2]): no anti-proliferative activity

Kd (SLC25A1): 63.6 µM
SMILES: O=C(O)c1ccc(Cl)c(S(=O)(=O)Nc2cccc([N+](=O)[O-])c2)c1 [CTPI-1]
growth inhibitory activity, range of concentrations (H1299 cells [1]; human cells (FIGS. 2A and 2E)): millimolar range of concentrations
sphere forming capacity (H1299 cells [1]; one week after treatment, BTA 2 mM, CTPI 1 mM (FIG. 9F)): reduced sphere forming capacity
